Results taken from the NIST ThermoML archive (doi:10.1021/acs.jced.6b00273).
Numbers after ± are expanded uncertainties.

Assay: mn = molality of the nth substance listed, in mol/kg
Details: 101.33 kPa, Liquid; for viscosity: Capillary tube (Ostwald / Ubbelohde) method; for mass density: Vibrating tube method

Cn1cnc2c1c(=O)[nH]c(=O)n2C [1H-purine-2,6-dione, 3,7-dihydro-3,7-dimethyl-] + O
Details	mass density, 288.15 K [kg/m3]	mass density, 298.15 K [kg/m3]	mass density, 308.15 K [kg/m3]	mass density, 318.15 K [kg/m3]	viscosity, 288.15 K [mPa·s]	viscosity, 298.15 K [mPa·s]	viscosity, 308.15 K [mPa·s]	viscosity, 318.15 K [mPa·s]
m1 = 0.00051	999.157 ± 8	997.073 ± 8	994.088 ± 8	990.268 ± 8	1.138 ± 0.025	0.891 ± 0.026	0.72 ± 0.025	0.597 ± 0.024
m1 = 0.0007	999.167 ± 8	997.083 ± 8	994.097 ± 8	990.277 ± 8	1.139 ± 0.025	0.891 ± 0.025	0.72 ± 0.024	0.597 ± 0.024
m1 = 0.0009	999.177 ± 8	997.093 ± 8	994.107 ± 8	990.287 ± 8	1.139 ± 0.025	0.891 ± 0.025	0.72 ± 0.024	0.597 ± 0.024
m1 = 0.00098	999.182 ± 8	997.097 ± 8	994.111 ± 8	990.291 ± 8	1.139 ± 0.025	0.891 ± 0.025	0.72 ± 0.024	0.597 ± 0.024
m1 = 0.00123	999.195 ± 8	997.11 ± 8	994.123 ± 8	990.303 ± 8	1.139 ± 0.025	0.891 ± 0.025	0.72 ± 0.024	0.597 ± 0.024
m1 = 0.00147	–	–	–	–	1.139 ± 0.025	0.891 ± 0.025	0.72 ± 0.024	0.597 ± 0.024
m1 = 0.00148	999.209 ± 8	997.123 ± 8	994.135 ± 8	990.314 ± 8	–	–	–	–
m1 = 0.00182	–	–	–	–	1.139 ± 0.025	0.891 ± 0.025	0.72 ± 0.024	0.597 ± 0.024
m1 = 0.00183	999.228 ± 8	997.141 ± 8	994.152 ± 8	990.331 ± 8	–	–	–	–
m1 = 0.00212	–	–	–	–	1.139 ± 0.025	0.891 ± 0.025	0.72 ± 0.025	0.597 ± 0.024
m1 = 0.00213	999.244 ± 8	997.156 ± 8	994.167 ± 8	990.346 ± 8	–	–	–	–

Cn1c(=O)c2c(ncn2C)n(C)c1=O [caffeine] + O
Details	mass density, 288.15 K [kg/m3]	mass density, 298.15 K [kg/m3]	mass density, 308.15 K [kg/m3]	mass density, 318.15 K [kg/m3]	viscosity, 288.15 K [mPa·s]	viscosity, 298.15 K [mPa·s]	viscosity, 308.15 K [mPa·s]	viscosity, 318.15 K [mPa·s]
m1 = 0.00508	–	–	–	–	1.14 ± 0.025	0.895 ± 0.025	0.723 ± 0.024	0.599 ± 0.024
m1 = 0.0051	999.404 ± 8	997.304 ± 8	994.303 ± 8	990.464 ± 8	–	–	–	–
m1 = 0.00693	–	–	–	–	1.142 ± 0.025	0.896 ± 0.025	0.724 ± 0.024	0.6 ± 0.024
m1 = 0.00695	999.505 ± 8	997.399 ± 8	994.39 ± 8	990.545 ± 8	–	–	–	–
m1 = 0.009	–	–	–	–	1.144 ± 0.025	0.896 ± 0.025	0.724 ± 0.024	0.601 ± 0.024
m1 = 0.00902	999.619 ± 8	997.504 ± 8	994.488 ± 8	990.637 ± 8	–	–	–	–
m1 = 0.01986	–	–	–	–	1.147 ± 0.025	0.9 ± 0.025	0.728 ± 0.024	0.606 ± 0.024
m1 = 0.01993	1000.22 ± 8	998.06 ± 8	995.013 ± 8	991.121 ± 8	–	–	–	–
m1 = 0.02978	–	–	–	–	1.152 ± 0.025	0.905 ± 0.025	0.732 ± 0.024	0.609 ± 0.024
m1 = 0.02992	1000.77 ± 8	998.576 ± 8	995.497 ± 8	991.571 ± 8	–	–	–	–
m1 = 0.03531	1001.07 ± 8	998.853 ± 8	995.759 ± 8	991.812 ± 8	–	–	–	–
m1 = 0.03533	–	–	–	–	1.154 ± 0.025	0.907 ± 0.025	0.735 ± 0.024	0.611 ± 0.024
m1 = 0.03983	–	–	–	–	1.156 ± 0.025	0.91 ± 0.025	0.737 ± 0.024	0.613 ± 0.024
m1 = 0.04008	1001.34 ± 8	999.101 ± 8	996.001 ± 8	992.025 ± 8	–	–	–	–
m1 = 0.04953	–	–	–	–	1.162 ± 0.025	0.914 ± 0.025	0.741 ± 0.024	0.617 ± 0.024
m1 = 0.04992	1001.89 ± 8	999.619 ± 8	996.484 ± 8	992.483 ± 8	–	–	–	–

Cn1c(=O)c2[nH]cnc2n(C)c1=O [3,7-dihydro-1,3-dimethyl-1H-purine-2,6-dione] + O
Details	mass density, 288.15 K [kg/m3]	mass density, 298.15 K [kg/m3]	mass density, 308.15 K [kg/m3]	mass density, 318.15 K [kg/m3]	viscosity, 288.15 K [mPa·s]	viscosity, 298.15 K [mPa·s]	viscosity, 308.15 K [mPa·s]	viscosity, 318.15 K [mPa·s]
m1 = 0.00208	999.241 ± 8	997.153 ± 8	994.165 ± 8	990.343 ± 8	–	–	–	–
m1 = 0.00213	–	–	–	–	1.139 ± 0.025	0.891 ± 0.025	0.719 ± 0.024	0.597 ± 0.024
m1 = 0.00284	–	–	–	–	1.139 ± 0.025	0.892 ± 0.025	0.72 ± 0.024	0.597 ± 0.024
m1 = 0.00285	999.283 ± 8	997.192 ± 8	994.204 ± 8	990.379 ± 8	–	–	–	–
m1 = 0.00378	999.333 ± 8	997.239 ± 8	994.25 ± 8	990.423 ± 8	–	–	–	–
m1 = 0.00394	–	–	–	–	1.14 ± 0.025	0.892 ± 0.025	0.72 ± 0.024	0.598 ± 0.024
m1 = 0.00479	999.388 ± 8	997.291 ± 8	994.3 ± 8	990.472 ± 8	–	–	–	–
m1 = 0.00519	–	–	–	–	1.14 ± 0.025	0.892 ± 0.025	0.721 ± 0.024	0.598 ± 0.024
m1 = 0.00578	999.443 ± 8	997.341 ± 8	994.35 ± 8	990.519 ± 8	–	–	–	–
m1 = 0.00617	–	–	–	–	1.141 ± 0.025	0.893 ± 0.025	0.722 ± 0.024	0.599 ± 0.024
m1 = 0.00689	–	–	–	–	1.141 ± 0.025	0.893 ± 0.025	0.722 ± 0.024	0.599 ± 0.024
m1 = 0.00699	999.509 ± 8	997.404 ± 8	994.41 ± 8	990.578 ± 8	–	–	–	–
m1 = 0.00776	999.551 ± 8	997.443 ± 8	994.448 ± 8	990.614 ± 8	–	–	–	–
m1 = 0.00819	–	–	–	–	1.142 ± 0.025	0.894 ± 0.025	0.723 ± 0.024	0.599 ± 0.024
m1 = 0.00921	–	–	–	–	1.142 ± 0.025	0.895 ± 0.025	0.723 ± 0.024	0.6 ± 0.024
m1 = 0.00934	999.638 ± 8	997.526 ± 8	994.528 ± 8	990.691 ± 8	–	–	–	–
m1 = 0.00986	999.667 ± 8	997.554 ± 8	994.554 ± 8	990.716 ± 8	–	–	–	–

[Cl-].[Na+] [sodium chloride] + O
Details	mass density, m1 = 0.1 [kg/m3]	mass density, m1 = 0.25 [kg/m3]	mass density, m1 = 0.5 [kg/m3]	mass density, m1 = 0.75 [kg/m3]	mass density, m1 = 1 [kg/m3]	viscosity, m1 = 0.1 [mPa·s]	viscosity, m1 = 0.25 [mPa·s]	viscosity, m1 = 0.5 [mPa·s]	viscosity, m1 = 0.75 [mPa·s]	viscosity, m1 = 1 [mPa·s]
288.15 K	1003.33 ± 8	1009.78 ± 8	–	1029.45 ± 8	1039.16 ± 8	1.15 ± 0.025	1.16 ± 0.025	1.178 ± 0.025	1.214 ± 0.025	1.254 ± 0.025
298.15 K	1001.12 ± 8	1007.29 ± 8	–	1026.12 ± 8	1036.18 ± 8	0.901 ± 0.025	0.91 ± 0.025	0.932 ± 0.025	0.959 ± 0.025	0.991 ± 0.025
308.15 K	998.046 ± 8	1003.48 ± 8	–	1023.12 ± 8	1032.47 ± 8	0.728 ± 0.024	0.74 ± 0.024	0.756 ± 0.024	0.78 ± 0.024	0.812 ± 0.024
318.15 K	994.175 ± 8	999.875 ± 8	1009.78 ± 8	1018.94 ± 8	1028.31 ± 8	0.605 ± 0.024	0.61 ± 0.024	0.63 ± 0.024	0.65 ± 0.024	0.676 ± 0.024
